What was measured:
Type in all cases: in vivo
[1] = tested on: morningglory (Ipomoea spp.); experiment: Test A pre-/postemergence plant response
From the text: (§1) Seeds of barnyardgrass (Echinochloa crus-galli), large crabgrass (Digitaria sanguinalis), giant foxtail (Setaria faberii), morningglory (Ipomoea spp.), pigweed (Amaranthus retroflexus), velvetleaf (Abutilon theophrasti), wheat (Triticum aestivum) and corn (Zea mays) were planted into a blend of loam soil and sand and treated preemergence with a directed soil spray using test chemicals formulated in a non-phytotoxic solvent mixture which included a surfactant. At the same time these species were also treated with postemergence applications of test compounds formulated in the same manner.
(§2) Plants ranged in height from two to ten cm and were in the one- to two-leaf stage for the postemergence treatment. Treated plants and untreated controls were maintained in a greenhouse for approximately ten days, after which time all treated plants were compared to untreated controls and visually evaluated for injury. Plant response ratings, summarized in Table A, are based on a 0 to 100 scale where 0 is no effect and 100 is complete control. A dash (-) response means no test result.

[2] = tested on: velvetleaf (Abutilon theophrasti); experiment: Test A pre-/postemergence plant response
From the text: as §1, §2

[3] = tested on: large crabgrass (Digitaria sanguinalis); experiment: Test A pre-/postemergence plant response
From the text: as §1, §2

corn (Zea mays) = experiment: Test A pre-/postemergence plant response
From the text: as §1, §2

[4] = tested on: wheat (Triticum aestivum); experiment: Test A pre-/postemergence plant response
From the text: as §1, §2

[5] = tested on: giant foxtail (Setaria faberii); experiment: Test A pre-/postemergence plant response
From the text: as §1, §2

[6] = tested on: pigweed (Amaranthus retroflexus); experiment: Test A pre-/postemergence plant response
From the text: as §1, §2

[7] = tested on: barnyardgrass (Echinochloa crus-galli); experiment: Test A pre-/postemergence plant response
From the text: as §1, §2

[8] = tested on: umbrella sedge (Cyperus difformis); experiment: Test B flooded paddy test; settings: for Plant response rating, Flood, Sedge, Umbrella: 250 g ai/ha, flooded paddy test, visual rating on 0 to 100 scale (0 no effect, 100 complete control) after 13 to 15 days; for Plant response rating, Sedge, Umbrella: Flood (flooded paddy test), 13 to 15 days; for Sedge, Umbrella plant response rating: Flood, 31 g ai/ha, scale 0 to 100 (0 no effect, 100 complete control)
Method in brief: (§3)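 Post-flood paddy application: compounds are introduced into water 3 cm deep over the soil, reaching plants at the 2-leaf stage. The water level is maintained, and after 13–15 days under greenhouse conditions, response is judged by eye relative to controls, where 100 means complete control.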

[9] = tested on: ducksalad (Heteranthera limosa); experiment: Test B flooded paddy test; settings: for Plant response rating, Flood, Ducksalad: 250 g ai/ha, flooded paddy test, visual rating on 0 to 100 scale (0 no effect, 100 complete control) after 13 to 15 days; for Plant response rating, Ducksalad: Flood (flooded paddy test), 13 to 15 days; for Ducksalad plant response rating: Flood, 31 g ai/ha, scale 0 to 100 (0 no effect, 100 complete control)
Method in brief: as §3

rice (Oryza sativa) = experiment: Test B flooded paddy test; settings: for Plant response rating, Flood, Rice: 250 g ai/ha, flooded paddy test, visual rating on 0 to 100 scale (0 no effect, 100 complete control) after 13 to 15 days; for Plant response rating, Rice: Flood (flooded paddy test), 13 to 15 days; for Rice plant response rating: Flood, 31 g ai/ha, scale 0 to 100 (0 no effect, 100 complete control)
Method in brief: as §3

[10] = tested on: barnyardgrass (Echinochloa crus-galli); experiment: Test B flooded paddy test; settings: for Plant response rating, Flood, Barnyardgrass: 250 g ai/ha, flooded paddy test, visual rating on 0 to 100 scale (0 no effect, 100 complete control) after 13 to 15 days; for Plant response rating, Barnyardgrass: Flood (flooded paddy test), 13 to 15 days; for Barnyardgrass plant response rating: Flood, 31 g ai/ha, scale 0 to 100 (0 no effect, 100 complete control)
Method in brief: as §3

[11] = Postemergence, 125 g ai/ha, 0 to 100 scale where 0 is no effect and 100 is complete control
[12] = Postemergence, 500 g ai/ha, 0 to 100 scale, 0 = no effect, 100 = complete control, approx. ten days
[13] = Preemergence, 125 g ai/ha, 0 to 100 scale, 0 = no effect, 100 = complete control
[14] = Preemergence, 500 g ai/ha, visual injury, 0 to 100 scale (0 no effect, 100 complete control), approx. ten days
[15] = 62 g ai/ha, scale of 0 to 100 where 0 is no effect and 100 is complete control
[16] = 125 g ai/ha, scale 0 to 100, 0 is no effect, 100 is complete control

CCCc1ncc(C(=O)C2=C(O)CCCC2=O)c(=O)n1Cc1ccccc1 [Compound 103]
30: Plant response rating, Barnyardgrass [7, 11]
60: Plant response rating, Morningglory [1, 14] | Plant response rating, Velvetleaf [2, 13] | Plant response rating, Foxtail, Giant [5, 14] | Plant response rating, Barnyardgrass [7, 12]
20: Plant response rating, Morningglory [1, 13] | Plant response rating, Corn (corn (Zea mays); [12]) | Plant response rating, Foxtail, Giant [5, 12] | Plant response rating, Barnyardgrass [7, 14]
100: Plant response rating, Morningglory [1, 11] | Plant response rating, Morningglory [1, 12] | Plant response rating, Velvetleaf [2, 11] | Plant response rating, Velvetleaf [2, 12] | Plant response rating, Pigweed [6, 11] | Plant response rating, Pigweed [6, 12] | Plant response rating, Pigweed [6, 14]
0: Plant response rating, Corn (corn (Zea mays); [11]) | Plant response rating, Corn (corn (Zea mays); [13]) | Plant response rating, Corn (corn (Zea mays); [14]) | Plant response rating, Wheat [4, 11] | Plant response rating, Wheat [4, 12] | Plant response rating, Wheat [4, 13] | Plant response rating, Wheat [4, 14] | Plant response rating, Foxtail, Giant [5, 11] | Plant response rating, Foxtail, Giant [5, 13] | Plant response rating, Barnyardgrass [7, 13] | Plant response rating, Flood, Sedge, Umbrella [8] | Plant response rating, Sedge, Umbrella [8, 15] | Plant response rating, Sedge, Umbrella [8, 16] | Sedge, Umbrella plant response rating [8] | Plant response rating, Flood, Ducksalad [9] | Plant response rating, Ducksalad [9, 15] | Plant response rating, Ducksalad [9, 16] | Ducksalad plant response rating [9] | Plant response rating, Flood, Rice (rice (Oryza sativa)) | Plant response rating, Rice (rice (Oryza sativa); [15]) | Plant response rating, Rice (rice (Oryza sativa); [16]) | Rice plant response rating (rice (Oryza sativa)) | Plant response rating, Flood, Barnyardgrass [10] | Plant response rating, Barnyardgrass [10, 15] | Plant response rating, Barnyardgrass [10, 16] | Barnyardgrass plant response rating [10]
80: Plant response rating, Crabgrass, Large [3, 14]
90: Plant response rating, Velvetleaf [2, 14] | Plant response rating, Pigweed [6, 13]
40: Plant response rating, Crabgrass, Large [3, 12] | Plant response rating, Crabgrass, Large [3, 13]
10: Plant response rating, Crabgrass, Large [3, 11]

CCCc1ncc(C(=O)C2=C(O)CCCC2=O)c(=O)n1Cc1cccc(OC)c1 [Compound 104]
10: Plant response rating, Barnyardgrass [7, 11]
90: Plant response rating, Pigweed [6, 14]
0: Plant response rating, Morningglory [1, 13] | Plant response rating, Morningglory [1, 14] | Plant response rating, Velvetleaf [2, 13] | Plant response rating, Crabgrass, Large [3, 11] | Plant response rating, Crabgrass, Large [3, 12] | Plant response rating, Crabgrass, Large [3, 13] | Plant response rating, Crabgrass, Large [3, 14] | Plant response rating, Corn (corn (Zea mays); [11]) | Plant response rating, Corn (corn (Zea mays); [12]) | Plant response rating, Corn (corn (Zea mays); [13]) | Plant response rating, Corn (corn (Zea mays); [14]) | Plant response rating, Wheat [4, 11] | Plant response rating, Wheat [4, 12] | Plant response rating, Wheat [4, 13] | Plant response rating, Wheat [4, 14] | Plant response rating, Foxtail, Giant [5, 11] | Plant response rating, Foxtail, Giant [5, 12] | Plant response rating, Foxtail, Giant [5, 13] | Plant response rating, Foxtail, Giant [5, 14] | Plant response rating, Barnyardgrass [7, 13] | Plant response rating, Barnyardgrass [7, 14] | Plant response rating, Flood, Sedge, Umbrella [8] | Plant response rating, Sedge, Umbrella [8, 15] | Plant response rating, Sedge, Umbrella [8, 16] | Sedge, Umbrella plant response rating [8] | Plant response rating, Flood, Ducksalad [9] | Plant response rating, Ducksalad [9, 15] | Plant response rating, Ducksalad [9, 16] | Ducksalad plant response rating [9] | Plant response rating, Flood, Rice (rice (Oryza sativa)) | Plant response rating, Rice (rice (Oryza sativa); [15]) | Plant response rating, Rice (rice (Oryza sativa); [16]) | Rice plant response rating (rice (Oryza sativa)) | Plant response rating, Flood, Barnyardgrass [10] | Plant response rating, Barnyardgrass [10, 15] | Plant response rating, Barnyardgrass [10, 16] | Barnyardgrass plant response rating [10]
70: Plant response rating, Morningglory [1, 11] | Plant response rating, Velvetleaf [2, 11]
80: Plant response rating, Velvetleaf [2, 12] | Plant response rating, Pigweed [6, 13]
40: Plant response rating, Velvetleaf [2, 14] | Plant response rating, Barnyardgrass [7, 12]
100: Plant response rating, Morningglory [1, 12] | Plant response rating, Pigweed [6, 11] | Plant response rating, Pigweed [6, 12]

CCCc1ncc(C(=O)C2=C(O)CCCC2=O)c(=O)n1Cc1cccc(OC(F)(F)F)c1 [Compound 105]
30: Plant response rating, Crabgrass, Large [3, 13] | Plant response rating, Foxtail, Giant [5, 13]
20: Plant response rating, Crabgrass, Large [3, 11] | Plant response rating, Foxtail, Giant [5, 12] | Plant response rating, Barnyardgrass [7, 11]
90: Plant response rating, Pigweed [6, 11] | Plant response rating, Pigweed [6, 14]
0: Plant response rating, Morningglory [1, 13] | Plant response rating, Velvetleaf [2, 13] | Plant response rating, Corn (corn (Zea mays); [11]) | Plant response rating, Corn (corn (Zea mays); [13]) | Plant response rating, Corn (corn (Zea mays); [14]) | Plant response rating, Wheat [4, 11] | Plant response rating, Wheat [4, 12] | Plant response rating, Wheat [4, 13] | Plant response rating, Wheat [4, 14] | Plant response rating, Foxtail, Giant [5, 11] | Plant response rating, Barnyardgrass [7, 13] | Plant response rating, Barnyardgrass [7, 14] | Plant response rating, Flood, Sedge, Umbrella [8] | Plant response rating, Sedge, Umbrella [8, 15] | Plant response rating, Sedge, Umbrella [8, 16] | Sedge, Umbrella plant response rating [8] | Plant response rating, Flood, Ducksalad [9] | Plant response rating, Ducksalad [9, 15] | Plant response rating, Ducksalad [9, 16] | Ducksalad plant response rating [9] | Plant response rating, Flood, Rice (rice (Oryza sativa)) | Plant response rating, Rice (rice (Oryza sativa); [15]) | Plant response rating, Rice (rice (Oryza sativa); [16]) | Rice plant response rating (rice (Oryza sativa)) | Plant response rating, Flood, Barnyardgrass [10] | Plant response rating, Barnyardgrass [10, 15] | Plant response rating, Barnyardgrass [10, 16] | Barnyardgrass plant response rating [10]
80: Plant response rating, Morningglory [1, 12] | Plant response rating, Pigweed [6, 13]
10: Plant response rating, Morningglory [1, 11] | Plant response rating, Corn (corn (Zea mays); [12])
100: Plant response rating, Velvetleaf [2, 11] | Plant response rating, Velvetleaf [2, 12] | Plant response rating, Pigweed [6, 12]
50: Plant response rating, Crabgrass, Large [3, 14] | Plant response rating, Foxtail, Giant [5, 14] | Plant response rating, Barnyardgrass [7, 12]
70: Plant response rating, Velvetleaf [2, 14] | Plant response rating, Crabgrass, Large [3, 12]

O=C1CCCC(O)=C1C(=O)c1cnc(C2CCCCC2)n(-c2ccccc2)c1=O [Compound 106]
60: Plant response rating, Velvetleaf [2, 14] | Plant response rating, Foxtail, Giant [5, 12]
90: Plant response rating, Pigweed [6, 14]
40: Plant response rating, Velvetleaf [2, 13] | Plant response rating, Crabgrass, Large [3, 11] | Plant response rating, Foxtail, Giant [5, 13]
50: Plant response rating, Morningglory [1, 13] | Plant response rating, Barnyardgrass [7, 12] | Plant response rating, Barnyardgrass [7, 14]
20: Plant response rating, Foxtail, Giant [5, 11] | Plant response rating, Flood, Rice (rice (Oryza sativa)) | Plant response rating, Rice (rice (Oryza sativa); [16])
0: Plant response rating, Corn (corn (Zea mays); [11]) | Plant response rating, Corn (corn (Zea mays); [13]) | Plant response rating, Corn (corn (Zea mays); [14]) | Plant response rating, Wheat [4, 11] | Plant response rating, Wheat [4, 12] | Plant response rating, Wheat [4, 13] | Plant response rating, Wheat [4, 14] | Plant response rating, Flood, Sedge, Umbrella [8] | Plant response rating, Sedge, Umbrella [8, 15] | Plant response rating, Sedge, Umbrella [8, 16] | Sedge, Umbrella plant response rating [8] | Plant response rating, Flood, Ducksalad [9] | Plant response rating, Ducksalad [9, 15] | Plant response rating, Ducksalad [9, 16] | Ducksalad plant response rating [9] | Plant response rating, Rice (rice (Oryza sativa); [15]) | Rice plant response rating (rice (Oryza sativa)) | Plant response rating, Barnyardgrass [10, 15] | Plant response rating, Barnyardgrass [10, 16] | Barnyardgrass plant response rating [10]
100: Plant response rating, Morningglory [1, 11] | Plant response rating, Morningglory [1, 12] | Plant response rating, Velvetleaf [2, 11] | Plant response rating, Velvetleaf [2, 12] | Plant response rating, Pigweed [6, 12]
70: Plant response rating, Crabgrass, Large [3, 12] | Plant response rating, Crabgrass, Large [3, 13] | Plant response rating, Foxtail, Giant [5, 14]
10: Plant response rating, Corn (corn (Zea mays); [12]) | Plant response rating, Barnyardgrass [7, 11] | Plant response rating, Barnyardgrass [7, 13]
80: Plant response rating, Morningglory [1, 14] | Plant response rating, Crabgrass, Large [3, 14] | Plant response rating, Pigweed [6, 11] | Plant response rating, Pigweed [6, 13]
15: Plant response rating, Flood, Barnyardgrass [10]

— patent publication US8952024B2, “Herbicidal pyrimidone derivatives” (E I du Pont de Nemours and Company, priority 2009, dated 2015)
